Source: patent US20120302573A1, “METHODS OF INHIBITING PRO MATRIX METALLOPROTEINASE ACTIVATION” (priority 2011, published 2012)
Values joined by “and” are separate entries in the source; they are usually repeats but may differ in a detail not shown here. Equal values may be shown once.

Tests used:
[1] = system: rats with SCW-induced arthritis; assay: Efficacy in rats with SCW-induced arthritis (ankle thickness, clinical score); format: in vivo, rat
Description: To induce arthritis, Female Lewis (LEW/N) rats, 5-6 weeks of age (80-100 g) were injected (i.p.) with SCW PG-PS as described above. Eighteen days later, arthritis was well established. Calipers were used to measure the width (anterior to posterior surface) of the left and right hind ankles of each rat. Each ankle was measured 3 times and averaged, and treatment groups were randomized based on ankle thickness (Table 7). Commencing on day 18, randomized groups of arthritic rats (n=5 rats/group) received vehicle or 5, 20, or 50 mg/kg Compound α BID by oral gavage. Vehicle consisted of an aqueous mixture containing 2% (v:v) N-methylpyrrolidone, 5% (v:v) glycerine, and 20% (w:v) captisol. Treatment continued daily through the morning of day 26.
By day 18 mean ankle thickness was increased an average of >4.4 mm compared to disease free rats. Rats treated with vehicle alone continued to gradually develop a more severe arthritis based on ankle thickness measurements over the eight-day treatment period (Table 7). […] By day 26, the disease associated increase in ankle thickness had been reduced 27, 37, and 46 percent by 5, 20, and 50 mg/kg Compound α, respectively.
Hind paw inflammation clinical scores were assigned based on swelling and erythema.

[2] = target: T1, MMP9 mediated gelatinase activity (Rattus norvegicus, UniProt P50282); assay: In situ zymography of gelatinase activity in livers of SCW-induced rats dosed with compound; format: in vivo; conditions: for Liver gelatinase Intensity, Mean / Liver gelatinase Intensity, individual rats: Day 25-28
T1 construct: from tissue; host or cells: liver cryosections of female Lewis rats
Text: In situ zymography provides an alternative approach to assess active MMP9 in tissues (J Histochem Cytochem; 2004; 52:711-722). Tissue sections are overlain with fluorescein-conjugated gelatin wherein the conjugation is sufficiently dense to cause the fluorescein to be dye-quenched (DQ). Proteolytic degradation of the DQ-gelatin releases the fluorescein from the quenching effect giving rise to bright green fluorescence at the site of degradation. Because in situ zymography requires the use of frozen sections, calcified tissues are problematic. However, an additional feature of the SCW arthritis model is the development of hepatic granulomatous disease (J Immunol; 1986; 137:2199-2209), and MMP9 reportedly plays a role in macrophage recruitment in the granulomas response to mycobacteria (Infect Immun; 2006; 74:6135-6144). Consequently, granulomatous livers from SCW-treated rats were assessed for active MMP9 by in situ zymography.
As described above, Female Lewis (LEW/N) rats, 5-6 weeks of age (80-100 g) were injected (i.p.) with saline or SCW PG-PS. On day 28, when the granulomatous response was well established, animals were sacrificed and livers were frozen in OCT cryo-sectioning medium and 10 μm sections were cut on a Cryome HM 500 M cryotome and mounted on glass microscope slides. Sections were air dried briefly. MMP9 was confirmed as the source of the gelatinase activity in the liver by treating liver sections with monoclonal antibodies directed against the active site of the two major gelatinases MMP9 and MMP2. Liver sections overlain with 50 μL of 100 μg/mL neutralizing mouse monoclonal antibodies directed against MMP9 (Calbiochem, clone 6-6B), or MMP2 (Millipore, clone CA-4001), or with PBS for 1 hr at room temperature. Tissues were rinsed once with PBS, blotted, and briefly air dried and then overlain with DQ-gelatin (Invitrogen) dissolved to 1 mg/mL in deionized water and then diluted 1:10 in 1% wt/vol low gelling point agarose type VII (Sigma) in PBS. The sections were covered with coverslips, incubated in the dark at room temperature for 20 min, and imaged on an Olympus IX80 inverted microscope fitted with fluorescence optics, using SlideBook™ imaging software (Intelligent Imaging Innovations, Inc., Philadelphia, Pa.; version 5.0). Fluorescence intensity was determined (Table 9). When compared to a saline-treated rat, gelatinase activity was abundantly expressed in granulomatous liver sections obtained from a rat with SCW arthritis.
Next, liver in situ zymography was used to assess the relative presence of active MMP9 in rats dosed with vehicle vs. Compound α. Female Lewis (LEW/N) rats, 5-6 weeks of age (80-100 g) were injected (i.p.) with saline or SCW PG-PS. Commencing on day 25, randomized groups of rats (n=3 rats/group) received vehicle or 20 or 50 mg/kg Compound α BID by oral gavage. Vehicle consisted of an aqueous mixture containing 2% (v:v) N-methylpyrrolidone, 5% (v:v) glycerine, and 20% (w:v) captisol. Treatment continued daily through the morning of day 28.
Four hrs after the AM dose on day 28, rats were sacrificed and livers assessed for active MMP9 by in situ zymography (Table 10). Gelatinase activity was increased markedly in SCW-induced rats, but activity was reduced by approximately 80% in animals treated with 50 mg/kg Compound α.

T1 sequence (P50282 108-708): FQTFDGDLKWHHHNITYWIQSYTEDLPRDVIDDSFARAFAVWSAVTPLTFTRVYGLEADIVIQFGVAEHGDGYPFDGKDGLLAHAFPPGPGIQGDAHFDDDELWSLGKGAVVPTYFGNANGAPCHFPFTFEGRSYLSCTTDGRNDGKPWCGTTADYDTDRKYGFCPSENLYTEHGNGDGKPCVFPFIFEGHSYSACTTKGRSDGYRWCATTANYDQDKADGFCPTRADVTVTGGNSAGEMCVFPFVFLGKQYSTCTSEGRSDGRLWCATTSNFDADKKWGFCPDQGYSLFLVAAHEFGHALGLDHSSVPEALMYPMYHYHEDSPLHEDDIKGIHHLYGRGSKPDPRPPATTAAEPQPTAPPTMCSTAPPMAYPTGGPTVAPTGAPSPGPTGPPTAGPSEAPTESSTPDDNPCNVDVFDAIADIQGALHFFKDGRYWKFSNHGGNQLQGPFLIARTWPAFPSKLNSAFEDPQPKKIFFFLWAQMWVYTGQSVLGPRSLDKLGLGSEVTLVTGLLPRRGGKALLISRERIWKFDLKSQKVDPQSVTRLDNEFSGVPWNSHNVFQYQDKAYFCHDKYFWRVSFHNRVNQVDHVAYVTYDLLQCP

Liver gelatinase Intensity, Mean ([2]; 20 mg/kg BID oral): 55.2 RLU × 10^6
Liver gelatinase Intensity, Mean ([2]; 50 mg/kg BID oral): 11.1 RLU × 10^6
reduction of liver gelatinase activity ([2]; 50 mg/kg BID oral, day 28): approximately 80%
Structure (SMILES): Cc1nc(C)c(-c2csc(Nc3cc(S(N)(=O)=O)ccc3OC(C)C)n2)s1 [Compound α, 3-(2′,4′-Dimethyl-[4,5′]bithiazolyl-2-ylamino)-4-isopropoxy-benzenesulfonamide.HBr]
Day 26 % Inh of disease associated increase in ankle thickness ([1]; 5 mg/kg BID oral): 27%
Day 26 % Inh of disease associated increase in ankle thickness ([1]; 20 mg/kg BID oral): 37%
Day 26 % Inh of disease associated increase in ankle thickness ([1]; 50 mg/kg BID oral): 46%
Liver gelatinase Intensity, individual rats ([2]; 20 mg/kg BID oral): 43.0 RLU × 10^6 and 69.0 RLU × 10^6 and 53.7 RLU × 10^6
Liver gelatinase Intensity, individual rats ([2]; 50 mg/kg BID oral): 3.2 RLU × 10^6 and 25.6 RLU × 10^6 and 4.5 RLU × 10^6
